Laboratory results published in patent publication US20010055590A1, “Method for enhancing myoblast migration and invasion in the context of gene therapy” (priority 1999, published 2001).

B1: purified human plasmin (protein, UniProt P00747 20-580; P00747 581-810, looked up)
Plasmin heavy chain A: EPLDDYVNTQGASLFSVTKKQLGAGSIEECAAKCEEDEEFTCRAFQYHSKEQQCVIMAENRKSSIIIRMRDVVLFEKKVYLSECKTGNGKNYRGTMSKTKNGITCQKWSSTSPHRPRFSPATHPSEGLEENYCRNPDNDPQGPWCYTTDPEKRYDYCDILECEEECMHCSGENYDGKISKTMSGLECQAWDSQSPHAHGYIPSKFPNKNLKKNYCRNPDRELRPWCFTTDPNKRWELCDIPRCTTPPPSSGPTYQCLKGTGENYRGNVAVTVSGHTCQHWSAQTPHTHNRTPENFPCKNLDENYCRNPDGKRAPWCHTTNSQVRWEYCKIPSCDSSPVSTEQLAPTAPPELTPVVQDCYHGDGQSYRGTSSTTTTGKKCQSWSSMTPHRHQKTPENYPNAGLTMNYCRNPDADKGPWCFTTDPSVRWEYCNLKKCSGTEASVVAPPPVVLLPDVETPSEEDCMFGNGKGYRGKRATTVTGTPCQDWAAQEPHRHSIFTPETNPRAGLEKNYCRNPDGDVGGPWCYTTNPRKLYDYCDVPQCAAPSFDCGKPQVEPKKCPGR
Plasmin light chain B: VVGGCVAHPHSWPWQVSLRTRFGMHFCGGTLISPEWVLTAAHCLEKSPRPSSYKVILGAHQEVNLEPHVQEIEVSRLFLEPTRKDIALLKLSSPAVITDKVIPACLPSPNYVVADRTECFITGWGETQGTFGAGLLKEAQLPVIENKVCNRYEFLNGRVQSTELCAGHLAGGTDSCQGDSGGPLVCFEKDKYILQGVTSWGLGCARPNKPGVYVRVSRFVTWIEGVMRNN
modifications: Plasmin

Assays:
mouse myoblasts = experiment: In vitro mouse myoblast migration assay (gelatin-coated membrane); format: cell-based; settings: 12 hours; for stimulation of mouse myoblast migration over the DMEM control: 25 ng/ml bFGF, 50 μg/ml fibronectin, 10 ng/ml HGF, 2 ng/ml TGF-β1; for effect on mouse myoblast migration: stimulant in bottom chamber; for effect on bFGF-stimulated mouse myoblast migration: 0.05 units/ml plasmin or 50 mM NAC in top chamber; for effect on migration stimulated by bFGF and fibronectin in combination: 0.05 units/ml plasmin or 50 mM NAC
Description: Mouse myoblasts were previously isolated from hind limb muscles of 4-6 week old severe combined immunodeficient (SCID) mice and clonally purified from contaminating fibroblasts (Yao et al. “Primary myoblast-mediated gene: transfer: persistent expression of human factor IX in mice” Gene Therapy 1:99-107, 1994). Myoblasts (approximately 1×10^6 cells) were plated on 6 cm tissue culture plates coated with 0.5% gelatin (Sigma, St. Louis, Mo.) and grown in growth medium consisting of Dulbecco's Modified Eagle Medium (DMEM) (Gibco BRL, Gaithersburg Md.) supplemented with 20% fetal bovine serum (FBS; Gibco) and 0.5% chick embryo extract (CEE; Gibco). All animal studies were carried out following the institutional guidelines for ethical animal use. Human myoblasts were isolated using trypsin digestion from abdominal wall or chest wall muscle biopsies, and surgery. Written consent was obtained from all patients prior to biopsy isolation as approved by the University Hospital's Institutional Regulation Board on the use of human subjects. Cells were preplated on uncoated plates for 1 hour to separate muscle fibroblasts. […] All experiments were done with myoblasts of passage 7 or lower. Myoblast migration and invasion were examined using a commercially available in vitro cell migration and invasion assay kit (Biocoat, Becton Dickinson, Franklin Lakes, N.J.) as described by Albini et al. (A rapid in vitro assay for quantitating the invasive potential of tumor cells Cancer Res 47:3239-3245, 1987). Myoblasts were grown to approximately 70% confluence, rinsed three times in serum-free DMEM, followed by incubation for 3 hours in 0.2% bovine serum albumin (BSA) in DMEM to eliminate the effects of serum. Cells were then trypsinized and collected by centrifugation. Cells were resuspended in serum-free DMEM at a density of 1×10^5 cells/ml, and 0.5 ml aliquots of cell suspension were added to the top chamber. […] Fibronectin subfragments of 45 KDa (Sigma), 120 kDa (Gibco), 63 kDa (Retronectin, Takara) and 70 KDa (Sigma) were used alone or in combination. […] For migration studies, the upper chamber membrane was coated with 0.1% gelatin and cells were allowed to migrate for 8-12 hours, while for invasion studies, the upper membrane was coated with 5 μl of Matrigel® diluted to 5 mg/ml in sterile phosphate buffered saline (PBS) and cells were allowed to invade for 24 hours. The top side of the insert membrane was scrubbed free of cells using a cotton swab and the bottom side was stained using the Leukostat-I system (Fisher Diagnostics, Pittsburgh, Pa.). The number of cells per field was counted in 10 randomly selected fields and averaged for each condition. To evaluate the effects of inactivation or activation of MMPs, aliquots (0.05 units in 50 μl PBS) of purified human plasmin (Sigma) or 50 mM N-acetyl cysteine (NAC; Sigma) were added with the cells to the top chamber of the migration assay and growth factor was added to the bottom. […] Myoblasts (5×10^4 cells/well) were stimulated with various growth factors and fibronectin, and their ability to migrate or invade through a Matrigel® barrier (panel a, mouse myoblast migration at 12 hours; panel b, mouse myoblast invasion at 24 hours). […] Bars represent mean ±SEM from a minimum of 3 separate experiments. […] Further studies were done to elucidate the role of MMPs in cytokine-mediated mouse myoblast migration.

human myoblasts = experiment: In vitro human myoblast migration assay; format: cell-based; settings: for stimulation of human myoblast migration over the BSA control level: 12 hour time point; for effect on stimulated human myoblast migration: plasmin or NAC, FIG. 7c, migration induced by PDGF-BB
Description: Mouse myoblasts were previously isolated from hind limb muscles of 4-6 week old severe combined immunodeficient (SCID) mice and clonally purified from contaminating fibroblasts (Yao et al. “Primary myoblast-mediated gene: transfer: persistent expression of human factor IX in mice” Gene Therapy 1:99-107, 1994). Myoblasts (approximately 1×10^6 cells) were plated on 6 cm tissue culture plates coated with 0.5% gelatin (Sigma, St. Louis, Mo.) and grown in growth medium consisting of Dulbecco's Modified Eagle Medium (DMEM) (Gibco BRL, Gaithersburg Md.) supplemented with 20% fetal bovine serum (FBS; Gibco) and 0.5% chick embryo extract (CEE; Gibco). All animal studies were carried out following the institutional guidelines for ethical animal use. Human myoblasts were isolated using trypsin digestion from abdominal wall or chest wall muscle biopsies, and surgery. Written consent was obtained from all patients prior to biopsy isolation as approved by the University Hospital's Institutional Regulation Board on the use of human subjects. Cells were preplated on uncoated plates for 1 hour to separate muscle fibroblasts. Approximately 95% of the cells were desmin-positive following immunohistochemical staining of representative culture samples, and were capable of differentiation into myotubes, indicating high purity of the myoblast preparation. All experiments were done with myoblasts of passage 7 or lower. Myoblast migration and invasion were examined using a commercially available in vitro cell migration and invasion assay kit (Biocoat, Becton Dickinson, Franklin Lakes, N.J.) as described by Albini et al. (A rapid in vitro assay for quantitating the invasive potential of tumor cells Cancer Res 47:3239-3245, 1987). Myoblasts were grown to approximately 70% confluence, rinsed three times in serum-free DMEM, followed by incubation for 3 hours in 0.2% bovine serum albumin (BSA) in DMEM to eliminate the effects of serum. Cells were then trypsinized and collected by centrifugation. Cells were resuspended in serum-free DMEM at a density of 1×10^5 cells/ml, and 0.5 ml aliquots of cell suspension were added to the top chamber. […] Fibronectin subfragments of 45 KDa (Sigma), 120 kDa (Gibco), 63 kDa (Retronectin, Takara) and 70 KDa (Sigma) were used alone or in combination. The growth factor concentrations used were those which could produce maximal effects as examined in the present studies by extending from values reported by Bischoff (“Chemotaxis of skeletal muscle satellite cells” Devel. Dynamics 208:505-515, 1997). For migration studies, the upper chamber membrane was coated with 0.1% gelatin and cells were allowed to migrate for 8-12 hours, while for invasion studies, the upper membrane was coated with 5 μl of Matrigel® diluted to 5 mg/ml in sterile phosphate buffered saline (PBS) and cells were allowed to invade for 24 hours. The top side of the insert membrane was scrubbed free of cells using a cotton swab and the bottom side was stained using the Leukostat-I system (Fisher Diagnostics, Pittsburgh, Pa.). The number of cells per field was counted in 10 randomly selected fields and averaged for each condition. To evaluate the effects of inactivation or activation of MMPs, aliquots (0.05 units in 50 μl PBS) of purified human plasmin (Sigma) or 50 mM N-acetyl cysteine (NAC; Sigma) were added with the cells to the top chamber of the migration assay and growth factor was added to the bottom. […] The effects of growth factors on human myoblast migration in vitro (12 hour time point) were somewhat different from those observed with mouse myoblasts. […] The greatly elevated level of migration of human myoblasts was due in part to the extremely low migration in the BSA control (basal level) of human cells compared to mouse cells. The largest effects on human myoblast migration were produced by fibronectin (100-fold), PDGF (about 62-fold), TGF-β (about 54-fold) and HGF (46-fold) over the control level, while bFGF produced only a 37-fold stimulation (FIG. 7a). […]

Molecule	stimulation of mouse myoblast migration over the DMEM control (mouse myoblasts)	effect on mouse myoblast migration (mouse myoblasts)	stimulation of human myoblast migration over the BSA control level (human myoblasts)	effect on migration stimulated by combination of bFGF and plasmin (mouse myoblasts; 50 mM NAC)	effect on bFGF-stimulated mouse myoblast migration (mouse myoblasts)	effect on migration stimulated by bFGF and fibronectin in combination (mouse myoblasts)	effect on stimulated human myoblast migration (human myoblasts)	effect alone on mouse myoblast migration compared to the control (mouse myoblasts; 0.05 units/ml plasmin, no growth factor)
human serum fibronectin	14 fold	stimulated migration of mouse myoblasts to various degrees	100 fold	–	–	–	–	–
CC(=O)N[C@@H](CS)C(=O)O [NAC, N-acetyl cysteine, reference compound]	–	–	–	dramatic reduction	efficiently reduced the effect of bFGF on mouse myoblast migration to a level similar to the BSA control	attenuated the effects	greatly reduced	–
bovine basic fibroblast growth factor [bFGF]	12 fold	stimulated migration of mouse myoblasts to various degrees	37 fold	–	–	–	–	–
B1	–	–	–	–	increased the migrational response to bFGF by nearly twofold	attenuated the effect	significantly increased	slightly negative effect
